Experimental data taken from US6703365B2, “Glucagon-like insulinotropic peptides, compositions and methods” (Eli Lilly and Company, priority 1993, dated 2004).
Values joined by “and” are separate entries in the source; they are usually repeats but may differ in a detail not shown here. Equal entries are not always repeated. Where two headings read alike, the source gives them in different places.

Experiments:
[1] = Zinc complexation/precipitation of GLP-1 molecules, protein content of supernatant by 280 nm absorbance (Example 1); assay type: physicochemical; conditions: 0.1M HEPES pH 7.4, about 0.1 mg/mL, 22° C., about 18 hours
Method: Individual aliquots of 5 different GLP-1 molecules were prepared by well-known, solid phase peptide synthesis and were lyophilized in small vials. Portions of 0.1M HEPES (N-[2-hydroxyethyl]piperazine-N′-[2-ethanesulfonic acid]) buffers at pH 7.4 containing various levels of zinc chloride were added to the aliquots to obtain a protein concentration of about 0.1 mg/mL. The samples were mixed and stored at ambient temperature (22° C.) for about 18 hours. The mixtures were then centrifuged (Fisher Model 235C micro-centrifuge) for 5 minutes. The clear supernatants were pipetted from the tubes. The protein content of the supernatants was estimated by measuring their absorbance at 280 nm in a spectrophotometer (Gilford 260). The theoretical absorbance value for a 0.1 mg/mL solution of the GLP-1 molecules at this wavelength in the 1 cm cuvettes is 0.207.

[2] = stored at 4° C.; cited from earlier work
[3] = Zinc precipitation of GLP-1 (7-36)NH2, 280 nm absorbance and zinc by atomic absorption in supernatant and redissolved precipitate (Example 2); assay type: physicochemical
Method: 5 mg of GLP-1 (7-36)NH2 was completely dissolved in 2.5 ML of pH 7.4, zinc-free 0.1M HEPES buffer. An additional 2.5 mL of pH 7.4, 0.1M HEPES buffer containing 0.6 mM zinc chloride was quickly added. The approximate molar ratio of zinc to GLP-1 (7-36)NH2 in this sample is 1 to 1. The solution immediately became cloudy and precipitation soon formed. The mixture was stored at ambient temperature (22° C.) for 18 hours.
The precipitate became firmly attached to the bottom of the glass vial. The supernatant was completely decanted by pipette. The precipitate was then completely dissolved in 5.0 mL of 0.1N hydrochloric acid. The absorbance at 280 nm was determined for both the supernatant and redissolved precipitate solutions. The zinc levels in these solutions were quantitated by atomic absorption spectrophotometry.

[4] = intravenous infusion, cited from earlier work
[5] = Zn/GLP-1 molecule molar ratio 0, theoretical absorbance 0.207
[6] = Zn/GLP-1 molecule molar ratio 0.3
[7] = Zn/GLP-1 molecule molar ratio 0.5
[8] = Zn/GLP-1 molecule molar ratio 0.7
[9] = Zn/GLP-1 molecule molar ratio 1.0
[10] = Zn/GLP-1 molecule molar ratio 3.0
[11] = Patients With Maturity Onset Diabetes

Row | Substance | 280 nm Absorbance of supernatant [1, 5] | 280 nm Absorbance of supernatant [1, 6] | 280 nm Absorbance of supernatant [1, 7] | 280 nm Absorbance of supernatant [1, 8] | 280 nm Absorbance of supernatant [1, 9] | 280 nm Absorbance of supernatant [1, 10] | further results
1 | Gly^8-Gln^21-GLP-1(7-37)OH [Gly^8-Gln^21 GLP-1 (7-37)OH] | 0.167 | 0.113 | 0.082 | 0.069 | 0.065 | 0.055 | 
2 | Val^8-GLP-1(7-37) OH [Val^8-GLP-1 (7-37)OH] | 0.187 | 0.191 | 0.184 | 0.180 | 0.173 | 0.110 | 
3 | α-methly-Ala^8-GLP-1(7-36)NH2 [α-methyl-Ala^8-GLP-1 (7-36)NH2] | 0.163 | 0.134 | 0.098 | 0.079 | 0.076 | 0.055 | 
4 | GLP-1 (7-37) |  |  |  |  |  |  | Time after sample preparation at which by-products were found [2]: eleven
5 | His^7-Ala-Glu-Gly^10-Thr-Phe-Thr-Ser-Asp15-Val-Ser-Ser-Tyr-Leu^20-Glu-Gly-Gln-Ala-Ala^25-Lys-Glu-Phe-Ile-Ala^30-Trp-Leu-Val-Lys-Gly^35-Arg-NH2 [GLP-1 (7-36)NH2] | 0.172 | 0.099 | 0.057 | 0.035 | 0.039 | 0.048 | Zinc Concentration in Parts per Million ([3]; Redissolved Precipitate (5 ml)): 13.3 Parts per Million; 280 nm Absorbance ([3]; Redissolved Precipitate (5 ml) in 0.1N hydrochloric acid): 1.932; Zinc Concentration in Parts per Million ([3]; Supernatant (5 ml)): 9.02 Parts per Million; 280 nm Absorbance ([3]; Supernatant (5 ml), zinc to peptide about 1 to 1, pH 7.4 HEPES, 22° C., 18 hours): 0.118; zinc concentration of the redissolved precipitate solution ([3]; equivalent of 13.3 parts per million): 203 µM; GLP-1 (7-36)NH2 concentration of the redissolved precipitate ([3]; from 280 nm absorbance 1.932): 0.933 mg/ml and 283 μM; molar ratio of zinc to GLP-1 (7-36)NH2 in the precipitate ([3]; ratio to 1): 0.717; precipitation from the solution when zinc-containing HEPES solution was added ([3]; zinc to peptide about 1 to 1, pH 7.4): most of the GLP-1 (7-36)NH2 precipitated from the solution; Meal glycemia ([4]; Normal Subjects, twice normal serum concentrations): Unchanged; Endogenous insulin secretion in response to a meal ([4]; Normal Subjects): Unchanged; Free fatty acids ([4]; Normal Subjects): Reduced (3); Endogenous insulin secretion in response to a meal [4, 11]: Increased; Fasting glucagon [4, 11]: Reduced; Fasting glycemia [4, 11]: Reduced; Free fatty acids [4, 11]: Reduced (2); Meal glycemia [4, 11]: Reduced; Post-prandial glucagon [4, 11]: Reduced
6 | Gly^8-GLP-1(7-36)NH2 [Gly^8-GLP-1 (7-36)NH2] | 0.136 | 0.079 | 0.070 | 0.058 | 0.057 | 0.044 | 
